According to the supplement of paper PMC13380429:

Legend:
Details in all cases: 72 h
[1] = system: Calu-3; assay: relative viability EC50 (midpoint between 100% and the lowest measured viability); higher = less toxic
[2] = system: Vero E6; assay: as above
[3] = system: Caco-2; assay: as above
[4] = system: U2OS; assay: as above
[5] = system: HepG2; assay: as above
[6] = system: Calu-3; assay: drug sensitivity score (DSS) for viability; higher = more toxic; extreme values may be limits of the assay
[7] = system: Vero E6; assay: as above
[8] = system: Caco-2; assay: as above
[9] = system: U2OS; assay: as above
[10] = system: HepG2; assay: as above
[11] = system: Calu-3; assay: cell viability relative to DMSO; higher = less toxic
[12] = system: Vero E6; assay: as above
[13] = system: Caco-2; assay: as above
[14] = system: U2OS; assay: as above
[15] = system: HepG2; assay: as above

Row | Compound | relative viability EC50 [1] [µM] | relative viability EC50 [2] [µM] | relative viability EC50 [3] [µM] | relative viability EC50 [4] [µM] | relative viability EC50 [5] [µM] | drug sensitivity score [6] | drug sensitivity score [7] | drug sensitivity score [8] | drug sensitivity score [9] | drug sensitivity score [10] | cell viability ([11]; 1 nM) [%] | cell viability ([11]; 10 nM) [%] | cell viability ([11]; 100 nM) [%] | cell viability ([11]; 1000 nM) [%] | cell viability ([11]; 10000 nM) [%] | cell viability ([12]; 1 nM) [%] | cell viability ([12]; 10 nM) [%] | cell viability ([12]; 100 nM) [%] | cell viability ([12]; 1000 nM) [%] | cell viability ([12]; 10000 nM) [%] | cell viability ([13]; 1 nM) [%] | cell viability ([13]; 10 nM) [%] | cell viability ([13]; 100 nM) [%] | cell viability ([13]; 1000 nM) [%] | cell viability ([13]; 10000 nM) [%] | cell viability ([14]; 1 nM) [%] | cell viability ([14]; 10 nM) [%] | cell viability ([14]; 100 nM) [%] | cell viability ([14]; 1000 nM) [%] | cell viability ([14]; 10000 nM) [%] | cell viability ([15]; 1 nM) [%] | cell viability ([15]; 10 nM) [%] | cell viability ([15]; 100 nM) [%] | cell viability ([15]; 1000 nM) [%] | cell viability ([15]; 10000 nM) [%]
1 | O=C1C2C=Nc3ccccc3C2=NN1c1ccc(Cl)cc1 (stereo not given) [CGS-9896] | > 10 | > 10 | > 10 | > 10 | > 10 | 0 | 0 | 0.6 | 0 | 0 | 93.7 | 104 | 87.9 | 95.8 | 103 | 99.8 | 103 | 92.6 | 97.9 | 95.8 | 103 | 101 | 94.2 | 93 | 82.7 | 95.6 | 100 | 91.1 | 94 | 91.3 | 97.1 | 88.6 | 91 | 94.1 | 102
2 | COc1ccc(OC[C@@H]2c3cc(OC)c(OC)cc3CCN2C(=O)c2cccc(Cl)c2)cc1 [CIQ] | > 10 | > 10 | > 10 | > 10 | > 10 | 0 | 0 | 0.8 | 0 | 0 | 100 | 102 | 100 | 109 | 92.7 | 100 | 97.4 | 93.7 | 94 | 98.6 | 101 | 102 | 91.8 | 101 | 76.4 | 96.6 | 100 | 93.9 | 104 | 91.3 | 101 | 96.5 | 91.4 | 89.9 | 106
3 | CC(=O)OCC(=O)[C@@]12N=C(C)O[C@@H]1C[C@H]1[C@@H]3CCC4=CC(=O)C=C[C@]4(C)[C@H]3[C@@H](O)C[C@@]12C [Deflazacort (Calcort)] | > 10 | > 10 | > 10 | > 10 | > 10 | 0.4 | 0 | 0 | 0 | 0 | 102 | 92.9 | 97.2 | 80.9 | 93.1 | 99.1 | 99 | 102 | 102 | 102 | 97.8 | 93.3 | 92.8 | 101 | 97.9 | 99.7 | 95.6 | 99.7 | 94.4 | 97.7 | 109 | 103 | 110 | 102 | 95.9
4 | NC(=O)C1CCCc2c1[nH]c1ccc(Cl)cc21 (stereo not given) [EX-527] | > 10 | > 10 | > 10 | > 10 | > 10 | 0 | 0 | 0 | 0 | 0 | 107 | 101 | 107 | 96.6 | 94.7 | 94.1 | 107 | 93.7 | 98.9 | 109 | 99.7 | 94.8 | 98.5 | 92 | 103 | 95.9 | 93.2 | 105 | 93.4 | 98.1 | 93.3 | 107 | 98 | 110 | 106
5 | Cc1ccc(Cl)cc1N(CC(=O)Nc1c(F)cccc1F)S(C)(=O)=O [FPH1-(BRD-6125)] | > 10 | > 10 | > 10 | > 10 | > 10 | 0 | 0 | 0 | 0 | 0 | 110 | 93.4 | 97.8 | 105 | 87.3 | 98.3 | 103 | 97.6 | 97.2 | 99.1 | 104 | 97.2 | 111 | 99.7 | 107 | 97.7 | 103 | 105 | 101 | 97.8 | 100 | 107 | 104 | 94.5 | 108
6 | N=C(N)Nc1ccc2[nH]c3c(c2c1)C[C@@]1(O)[C@H]2Cc4ccc(O)c5c4[C@@]1(CCN2CC1CC1)[C@H]3O5 [GNTI] | > 10 | > 10 | > 10 | > 10 | > 10 | 0 | 0 | 0 | 0 | 0.1 | 93.8 | 92.7 | 98.3 | 102 | 106 | 101 | 97.4 | 104 | 104 | 101 | 99.7 | 95.2 | 99.4 | 95.6 | 102 | 99.7 | 93.5 | 101 | 101 | 104 | 99 | 122 | 111 | 98.2 | 88.1
7 | CN(CCOc1ccc(C[C@H](Nc2ccccc2C(=O)c2ccccc2)C(=O)O)cc1)c1ccccn1 [GW-1929] | > 10 | > 10 | > 10 | > 10 | > 10 | 0 | 0 | 0.2 | 0 | 0 | 111 | 112 | 120 | 116 | 95.6 | 92 | 90.2 | 80.3 | 82.3 | 90.2 | 95.1 | 96.3 | 107 | 99.5 | 85.5 | 98.3 | 96.1 | 99.3 | 98.7 | 98.2 | 92.2 | 104 | 81.5 | 85.8 | 106
